Converted amounts (≈) assume the structure as drawn. Where two headings read alike, the source gives them in different places.
What was measured:
C. krusei = assay: In vitro antifungal activity (minimum inhibitory concentration), C. krusei; format: cell-based; settings: Pichia kudriavzevii, 48 h at 37° C.
Experimental: (§1) The compounds of the present invention were evaluated in vitro for their antifungal activity and were assessed based on minimum inhibitory concentration of the test compound, i.e. the concentration of the test compound at which growth of particular organism fails to occur. […] The microorganisms used in this test include Candida albicans, C. tropicalis, C. kefyr, C. krusei, C. guilliermondii, C. glabrata, Cryptococcus neoformans, Aspergillus niger and A. fumigatus.

C. albicans = assay: In vivo therapeutic efficacy, C. albicans systemic infection in mice; settings: Candida albicans, oral, i.v. and s.c. routes, survival vs control, read-out: Therapeutic efficacy (ED50) in mice systemic infections
Experimental: (§2) Certain selected compounds were evaluated in-vivo for their antifungal efficacy. Series of doses of test compounds were administered by oral, i.v and s.c. routes to infected mice, i.e mice that are inoculated with a strain of Candida albicans or Aspergillus fumigatus. Efficacy of test compound was determined based on survival of treated mice compared to control. The in vivo efficacy was assessed based on ED50 of the test compound. The following table provides ED50 of certain compounds for systemic infections of C. albicans and A. fumigatus in mice models.

C. glabrata = assay: In vitro antifungal activity (minimum inhibitory concentration), C. glabrata; format: cell-based; settings: Nakaseomyces glabratus, 48 h at 37° C.
Experimental: as §1

Saccheromyces cerevisiae = assay: In vitro antifungal activity (minimum inhibitory concentration), Saccheromyces cerevisiae; format: cell-based
Candida albicans = assay: In vitro antifungal activity (minimum inhibitory concentration), Candida albicans; format: cell-based; settings: 48 h at 37° C.
Experimental: as §1

Aspergillus fumigatus = assay: In vitro antifungal activity (minimum inhibitory concentration), Aspergillus fumigatus; format: cell-based; settings: 48 h at 37° C.
Experimental: as §1

C. tropicalis = assay: In vitro antifungal activity (minimum inhibitory concentration), C. tropicalis; format: cell-based; settings: Candida tropicalis, 48 h at 37° C.
Experimental: as §1

A. fumigatus = assay: In vivo therapeutic efficacy, A. fumigatus systemic infection in mice; settings: Aspergillus fumigatus, oral, i.v. and s.c. routes, survival vs control, read-out: Therapeutic efficacy (ED50) in mice systemic infections
Experimental: as §2

C. guilliermondii = assay: In vitro antifungal activity (minimum inhibitory concentration), C. guilliermondii; format: cell-based; settings: Meyerozyma guilliermondii, 48 h at 37° C.
Experimental: as §1

C. kefyr = assay: In vitro antifungal activity (minimum inhibitory concentration), C. kefyr; format: cell-based; settings: Kluyveromyces marxianus, 48 h at 37° C.
Experimental: as §1

Cryptococcus neoformans = assay: In vitro antifungal activity (minimum inhibitory concentration), Cryptococcus neoformans; format: cell-based; settings: 48 h at 37° C.
Experimental: as §1

A. niger = assay: In vitro antifungal activity (minimum inhibitory concentration), A. niger; format: cell-based; settings: Aspergillus niger, 48 h at 37° C.
Experimental: as §1

filamentous fungi = settings: background; cited from earlier work
[1] = background; cited from earlier work
[2] = background; cited from earlier work; remark: listed apart in the source
[3] = Saccheromyces cerevisiae, 48 h at 37° C., read-out: MIC

Row | SMILES | MIC (C. krusei) [µg/mL] | MIC (C. glabrata) [µg/mL] | MIC (Saccheromyces cerevisiae; [3]) [µg/mL] | MIC (Candida albicans) [µg/mL] | MIC (Aspergillus fumigatus) [µg/mL] | MIC (C. tropicalis) [µg/mL] | MIC (C. guilliermondii) [µg/mL] | MIC (C. kefyr) [µg/mL] | MIC (Cryptococcus neoformans) [µg/mL] | MIC (A. niger) [µg/mL] | ED50 (C. albicans) [mg/kg] | ED50 (A. fumigatus) [mg/kg] | activity against filamentous fungi (filamentous fungi) | MIC (Saccheromyces cerevisiae; 48 h) [µg/mL] | protein binding [1] | bioavailability [2]
1 | C[C@@H](N1CCN(c2ccc(-n3cnn(Cc4ccc(C(F)(F)F)cc4)c3=O)cc2)CC1)[C@](O)(Cn1cncn1)c1ccc(F)cc1F [Example 43] | 0.09 (≈ 0.137 µM) | 0.78 (≈ 1.19 µM) | 0.09 (≈ 0.137 µM) | 0.048 (≈ 0.0733 µM) | 0.19 (≈ 0.29 µM) | 0.048 (≈ 0.0733 µM) | 0.09 (≈ 0.137 µM) | 0.048 (≈ 0.0733 µM) | 0.048 (≈ 0.0733 µM) | 0.19 (≈ 0.29 µM) | 1.57 | 42.3 | – | – | – | –
2 | C[C@@H](N1CCN(c2ccc(-n3cnn(CC(F)(F)C(F)F)c3=O)cc2)CC1)[C@](O)(Cn1cncn1)c1ccc(F)cc1F [Example 44] | 0.09 (≈ 0.147 µM) | 1.56 (≈ 2.56 µM) | 0.048 (≈ 0.0786 µM) | 0.048 (≈ 0.0786 µM) | 0.048 (≈ 0.0786 µM) | 0.048 (≈ 0.0786 µM) | 0.048 (≈ 0.0786 µM) | 0.048 (≈ 0.0786 µM) | 0.048 (≈ 0.0786 µM) | 0.19 (≈ 0.311 µM) | – | – | – | – | – | –
3 | CC(C)n1ncn(-c2ccc(N3CCN([C@H](C)[C@](O)(Cn4cncn4)c4ccc(F)cc4F)CC3)cc2)c1=O [Example 41, (2R,3R)-2-(2,4-Difluorophenyl)-3-[4-{4-[2-(2-propyl)-2H-1,2,4-triazol-3-one-4-yl]phenyl}piperazin-1-yl]-1-(1H-1,2,4-triazol-1-yl)butan-2-ol] | 1.56 (≈ 2.9 µM) | 0.78 (≈ 1.45 µM) | 0.19 (≈ 0.353 µM) | 0.09 (≈ 0.167 µM) | 0.78 (≈ 1.45 µM) | 0.09 (≈ 0.167 µM) | 0.048 (≈ 0.0891 µM) | 0.48 (≈ 0.891 µM) | 0.48 (≈ 0.891 µM) | 3.12 (≈ 5.79 µM) | 8.01 | 89.3 | – | – | – | –
4 | OC(Cn1cncn1)(Cn1cncn1)c1ccc(F)cc1F [Fluconazole, reference compound] | 50 (≈ 163 µM) | 12.5 (≈ 40.8 µM) | – | 0.78 (≈ 2.55 µM) | > 100 | 0.39 (≈ 1.27 µM) | 1.56 (≈ 5.09 µM) | 0.39 (≈ 1.27 µM) | 1.56 (≈ 5.09 µM) | > 100 | – | – | not active against filamentous fungi | 6.25 (≈ 20.4 µM) | – | –
5 | CCC(C)n1ncn(-c2ccc(N3CCN(c4ccc(OCC5COC(Cn6cncn6)(c6ccc(Cl)cc6Cl)O5)cc4)CC3)cc2)c1=O (stereo not shown) [Itraconazole, reference compound] | 0.39 (≈ 0.553 µM) | 0.19 (≈ 0.269 µM) | 0.39 (≈ 0.553 µM) | 0.09 (≈ 0.128 µM) | 0.19 (≈ 0.269 µM) | 0.09 (≈ 0.128 µM) | 0.19 (≈ 0.269 µM) | 0.09 (≈ 0.128 µM) | 0.39 (≈ 0.553 µM) | 0.39 (≈ 0.553 µM) | – | – | active against filamentous fungi | – | high protein binding | less bioavailability

Further compounds by falling MIC (C. krusei), results first:

Row | MIC (C. krusei) [µg/mL] | MIC (C. glabrata) [µg/mL] | MIC (Saccheromyces cerevisiae; [3]) [µg/mL] | MIC (Candida albicans) [µg/mL] | MIC (Aspergillus fumigatus) [µg/mL] | MIC (C. tropicalis) [µg/mL] | MIC (C. guilliermondii) [µg/mL] | MIC (C. kefyr) [µg/mL] | MIC (Cryptococcus neoformans) [µg/mL] | MIC (A. niger) [µg/mL] | SMILES | ED50 (C. albicans) [mg/kg] | ED50 (A. fumigatus) [mg/kg] | activity against filamentous fungi (filamentous fungi) | MIC (Saccheromyces cerevisiae; 48 h) [µg/mL] | protein binding [1] | bioavailability [2]
6 | 1.56 (≈ 2.81 µM) | 12.5 (≈ 22.5 µM) | 0.39 (≈ 0.703 µM) | 0.09 (≈ 0.162 µM) | 0.39 (≈ 0.703 µM) | 0.09 (≈ 0.162 µM) | 0.09 (≈ 0.162 µM) | 0.048 (≈ 0.0865 µM) | 0.19 (≈ 0.343 µM) | 3.12 (≈ 5.63 µM) | CC(O)Cn1ncn(-c2ccc(N3CCN([C@H](C)[C@](O)(Cn4cncn4)c4ccc(F)cc4F)CC3)cc2)c1=O (stereo partly drawn) [Example 42, (2R,3R)-2-(2,4-Difluorophenyl)-3-[4-{4-[2-(2-hydroxypropyl)-2H-1,2,4-triazol-3-one-4-yl]phenyl}piperazin-1-yl]-1-(1H-1,2,4-triazol-1-yl)butan-2-ol] | > 90 | 71.1 | – | – | – | –
7 | 0.19 (≈ 0.305 µM) | 0.39 (≈ 0.626 µM) | 0.09 (≈ 0.145 µM) | 0.048 (≈ 0.0771 µM) | 0.048 (≈ 0.0771 µM) | 0.048 (≈ 0.0771 µM) | 0.048 (≈ 0.0771 µM) | 0.048 (≈ 0.0771 µM) | 0.048 (≈ 0.0771 µM) | 0.09 (≈ 0.145 µM) | C[C@@H](N1CCN(c2ccc(-n3cnn(Cc4ccc(F)cc4F)c3=O)cc2)CC1)[C@](O)(Cn1cncn1)c1ccc(F)cc1F [Example 46] | 56 | > 45 | – | – | – | –
8 | 0.19 (≈ 0.344 µM) | 0.39 (≈ 0.706 µM) | 0.09 (≈ 0.163 µM) | 0.09 (≈ 0.163 µM) | 0.39 (≈ 0.706 µM) | 0.048 (≈ 0.0869 µM) | 0.048 (≈ 0.0869 µM) | 0.048 (≈ 0.0869 µM) | 0.48 (≈ 0.869 µM) | 0.78 (≈ 1.41 µM) | CCC(C)n1ncn(-c2ccc(N3CCN([C@H](C)[C@](O)(Cn4cncn4)c4ccc(F)cc4F)CC3)cc2)c1=O (stereo partly drawn) [Example 40, (2R,3R)-3-[4-{4-[2-(2-Butyl)-2H-1,2,4-triazol-3-one-4-yl]phenyl}piperazin-1-yl]2-(2,4-difluorophenyl)-1-(1H-1,2,4-triazol-1-yl)butan-2-ol] | 4.68 | 67 | – | – | – | –
9 | 0.09 (≈ 0.159 µM) | 0.09 (≈ 0.159 µM) | 0.19 (≈ 0.335 µM) | 0.09 (≈ 0.159 µM) | 0.39 (≈ 0.688 µM) | 0.09 (≈ 0.159 µM) | 0.048 (≈ 0.0847 µM) | 0.048 (≈ 0.0847 µM) | 0.048 (≈ 0.0847 µM) | 0.78 (≈ 1.38 µM) | CCC(CC)n1ncn(-c2ccc(N3CCN([C@H](C)[C@](O)(Cn4cncn4)c4ccc(F)cc4F)CC3)cc2)c1=O [Example 36] | 8.01 | > 45 | – | – | – | –
